SMILES	melting point [°C]
N#Cc1c(-c2ccccc2)c(-c2ccccc2)n(Cc2ccccc2)c1Nc1ncnc2c1c1ccccc1n2Cc1ccccc1 [Example 66, 1-benzyl-2-(9-benzyl-9H-1,3,9-triaza-fluorene-4-yl-amino)-4,5-diphenyl-1H-pyrrol-3-carbonitrile]	> 90
Cc1c(C#N)c(Nc2ncnc3c2c(C)c(C)n3Cc2ccccc2)n(Cc2ccccc2)c1C [Example 75, 1-benzyl-2-(7-benzyl-5,6-dimethyl-7H-pyrrolo[2,3-d]pyrimidine-4-yl-amino)-4,5-dimethyl-1H-pyrrol-3-carbonitrile]	236 to 239.1
Cc1c(C#N)c(Nc2ncnc3c2c(C)c(C)n3-c2cccc(Cl)c2)n(Cc2ccccc2)c1C [Example 63, 1-benzyl-2-[5,6-dimethyl-7-(3-chloro-phenyl)-7H-pyrrolo[2,3-d]pyrimidine-4-yl-amino]-4,5-dimethyl-1H-pyrrol-3-carbonitrile]	228.1 to 229
Cc1c(C)n(Cc2ccccc2)c2ncnc(NN=Cc3cccc([N+](=O)[O-])c3)c12 [Example 32, N-(7-benzyl-5,6-dimethyl-7H-pyrrolo[2,3-d]pyrimidine-4-yl)-N′-(3-nitro-benzylidene)-hydrazine]	103 to 109.5
Cc1c(C)n(-c2cccc(Cl)c2)c2ncnc(NN=C3C(=O)Nc4c(Cl)ccc(Cl)c43)c12 [Example 41, 4,7-dichloro-3-{[5,6-dimethyl-7-(3-chloro-phenyl)-7H-pyrrolo[2,3-d]pyrimidine-4-yl]-hydrazono}-1,3-dihydro-indole-2-on]	284 to 285
Cc1c(C)n(-c2cccc(Cl)c2)c2ncnc(NN=C3C(=O)Nc4ccc(OC(F)(F)F)cc43)c12 [Example 44, 3-{[5,6-dimethyl-7-(3-chloro-phenyl)-7H-pyrrolo[2,3-d]pyrimidine-4-yl]-hydrazono}-5-trifluoromethoxy-1,3-dihydro-indole-2-on]	262 to 276
Cc1c(C)n(Cc2ccccc2)c2ncnc(C(=NN)c3ccc(O)c([N+](=O)[O-])c3)c12 [Example 28, 4-[(7-benzyl-5,6-dimethyl-7H-pyrrolo[2,3-d]pyrimidine-4-yl)-hydrazonomethyl]-2-nitro-phenol]	202 to 205
COc1cc(C(=NN)c2ncnc3c2c(C)c(C)n3-c2cccc(Cl)c2)ccc1O [Example 24, 4-{[5,6-dimethyl-7-(3-chloro-phenyl)-7H-pyrrolo[2,3-d]pyrimidine-4-yl]-hydrazonomethyl}-2-methoxy-phenol]	146 to 187
Cc1c(C)n(-c2cccc(Cl)c2)c2ncnc(NN=C3C(=O)Nc4ccccc43)c12 [Example 39, 3-{[5,6-dimethyl-7-(3-chloro-phenyl)-7H-pyrrolo[2,3-d]pyrimidine-4-yl]-hydrazono}-1,3-dihydro-indole-2-on]	281 to 293
Cc1ccc2c(c1)C(=NNc1ncnc3c1c(C)c(C)n3-c1cccc(Cl)c1)C(=O)N2 [Example 42, 3-{[5,6-dimethyl-7-(3-chloro-phenyl)-7H-pyrrolo[2,3-d]pyrimidine-4-yl]-hydrazono}-5-methyl-1,3-dihydro-indole-2-on]	302 to 303
Cc1c(C)n(Cc2ccccc2)c2ncnc(NN=C3C(=O)Nc4c(Cl)ccc(Cl)c43)c12 [Example 50, 3-[(7-benzyl-5,6-dimethyl-7H-pyrrolo[2,3-d]pyrimidine-4-yl)-hydrazono]-4,7-dichloro-1,3-dihydro-indole-2-on]	298
Cc1c(C)n(Cc2ccccc2)c2ncnc(NN=C3C(=O)Nc4ccc(Cl)cc43)c12 [Example 48, 3-[(7-benzyl-5,6-dimethyl-7H-pyrrolo[2,3-d]pyrimidine-4-yl)-hydrazono]-5-chloro-1,3-dihydro-indole-2-on]	302 to 303
Cc1c(C)n(Cc2ccccc2)c2ncnc(NN=C3C(=O)Nc4ccc(Br)cc43)c12 [Example 45, 3-[(7-benzyl-5,6-dimethyl-7H-pyrrolo[2,3-d]pyrimidine-4-yl)-hydrazono]-5-bromo-1,3-dihydro-indole-2-on]	288 to 290
Cc1c(C)n(-c2cccc(Cl)c2)c2ncnc(Nc3cc(C(C)(C)C)nn3-c3cccc([N+](=O)[O-])c3)c12 [Example 4, [5-tert.-butyl-2-(3-nitro-phenyl)-2H-pyrazole-3-yl]-[7-(3-chlorophenyl)-5,6-dimethyl-7H-pyrrolo[2,3-d]pyrimidine-4-yl]-amine]	189 to 190
COc1ccccc1C=NNc1ncnc2c1c(C)c(C)n2Cc1ccccc1 [Example 17, N-(7-benzyl-5,6-dimethyl-7H-pyrrolo[2,3-d]pyrimidine-4-yl)-N′-(2-methoxy-benzylidene)-hydrazine]	214 to 216
Cc1c(C)n(Cc2ccccc2)c2ncnc(NN=C3C(=O)Nc4ccccc43)c12 [Example 46, 3-[(7-benzyl-5,6-dimethyl-7H-pyrrolo[2,3-d]pyrimidine-4-yl)-hydrazono]-1,3-dihydro-indole-2-on]	292 to 293
Cc1c(C#N)c(Nc2ncnc3c2c2ccccc2n3Cc2ccccc2)n(-c2cccc(Cl)c2)c1C [Example 64, 2-(9-benzyl-9H-1,3,9-triaza-fluorene-4-yl-amino)-1-(3-chloro-phenyl)-4,5-dimethyl-1H-pyrrol-3-carbonitrile]	252.2 to 253.1
Cc1c(C)n(-c2cccc(Cl)c2)c2ncnc(NN=C3C(=O)Nc4ccc(F)cc43)c12 [Example 43, 3-{[5,6-dimethyl-7-(3-chloro-phenyl)-7H-pyrrolo[2,3-d]pyrimidine-4-yl]-hydrazono}-5-fluoro-1,3-dihydro-indole-2-on]	271 to 279
Cc1c(C)n(CCCN2CCOCC2)c2ncnc(NN=Cc3ccc(O)c([N+](=O)[O-])c3)c12 [Example 13, 4-{[5,6-dimethyl-7-(3-morpholine-4-yl-propyl)-7H-pyrrolo[2,3-d]pyrimidine-4-yl]hydrazonomethyl}-2-nitro-phenol]	158.8 to 161.5
Cc1c(C)n(-c2cccc(Cl)c2)c2ncnc(NN=C3C(=O)Nc4ccc(Br)cc43)c12 [Example 38, 5-bromo-3-{[5,6-dimethyl-7-(3-chloro-phenyl)-7H-pyrrolo[2,3-d]pyrimidine-4-yl]-hydrazono}-1,3-dihydro-indole-2-on]	292 to 294.5

Next, values leading:

melting point [°C]	SMILES
299	Cc1c(C)n(Cc2ccccc2)c2ncnc(NN=C3C(=O)Nc4cc(Cl)cc(Cl)c43)c12 [Example 49, 3-[(7-benzyl-5,6-dimethyl-7H-pyrrolo[2,3-d]pyrimidine-4-yl)-hydrazono]-4,6-dichloro-1,3-dihydro-indole-2-on]
197.1 to 197.6	Cc1c(C)n(Cc2ccccc2)c2ncnc(Nc3c(C#N)c(-c4ccccc4)c(-c4ccccc4)n3Cc3ccccc3)c12 [Example 74, 1-benzyl-2-(7-benzyl-5,6-dimethyl-7H-pyrrolo[2,3-d]pyrimidine-4-yl-amino)-4,5-diphenyl-1H-pyrrol-3-carbonitrile]
237 to 240	Cc1cc(C(=NN)c2ncnc3c2c(C)c(C)n3Cc2ccccc2)cc(C)c1O [Example 29, 4-[(7-benzyl-5,6-dimethyl-7H-pyrrolo[2,3-d]pyrimidine-4-yl)-hydrazonomethyl]-2,6-dimethyl-phenol]
120.9 to 125.3	Cc1c(C)n(CCCN2CCOCC2)c2ncnc(Nc3cc(C(C)(C)C)nn3-c3cccc([N+](=O)[O-])c3)c12 [Example 16, [5-tert.-butyl-2-(3-nitro-phenyl)-2H-pyrazole-3-yl]-[5,6-dimethyl-7-(3-morpholine-4-yl-propyl)-7H-pyrrolo[2,3-d]pyrimidine-4-yl]-amine]
219 to 221	Cc1c(C)n(Cc2ccccc2)c2ncnc(C(=NN)c3ccc(N(C)C)cc3)c12 [Example 31, {4-[(7-benzyl-5,6-dimethyl-7H-pyrrolo[2,3-d]pyrimidine-4-yl)-hydrazonomethyl]-phenyl}-dimethyl-amine]
220 to 221	COc1cc(C(=NN)c2ncnc3c2c(C)c(C)n3Cc2ccccc2)ccc1O [Example 33, 4-[(7-benzyl-5,6-dimethyl-7H-pyrrolo[2,3-d]pyrimidine-4-yl)-hydrazonomethyl]-2-methoxy-phenol]
223.5 to 225	Cc1c(C)n(Cc2ccccc2)c2ncnc(C(=NN)c3ccc(C#N)cc3)c12 [Example 35, 4-[(7-benzyl-5,6-dimethyl-7H-pyrrolo[2,3-d]pyrimidine-4-yl)-hydrazonomethyl]-benzonitrile]
187.4 to 189.3	Cc1c(C)n(-c2cccc(Cl)c2)c2ncnc(Nc3c(C#N)c(-c4ccccc4)c(-c4ccccc4)n3Cc3ccccc3)c12 [Example 62, 1-benzyl-2-[5,6-dimethyl-7-(3-chloro-phenyl)-7H-pyrrolo[2,3-d]pyrimidine-4-yl-amino]-4,5-diphenyl-1H-pyrrol-3-carbonitrile]
314 to 315	Cc1c(C)n(-c2cccc(Cl)c2)c2ncnc(NN=C3C(=O)Nc4ccc(Cl)cc43)c12 [Example 40, 5-chloro-3-{[5,6-dimethyl-7-(3-chloro-phenyl)-7H-pyrrolo[2,3-d]pyrimidine-4-yl]-hydrazono}-1,3-dihydro-indole-2-on]
165 to 166	Cc1c(C)n(Cc2ccccc2)c2ncnc(NN=Cc3ccc(C(F)(F)F)cc3)c12 [Example 26, N-(7-benzyl-5,6-dimethyl-7H-pyrrolo[2,3-d]pyrimidine-4-yl)-N′-(4-trifluoromethyl-benzylidene)-hydrazine]
204.2 to 206.5	Cc1c(C)n(-c2cccc(Cl)c2)c2ncnc(C(=NN)c3ccc(O)c([N+](=O)[O-])c3)c12 [Example 21, 4-{[5,6-dimethyl-7-(3-chloro-phenyl)-7H-pyrrolo[2,3-d]pyrimidine-4-yl]-hydrazonomethyl}-2-nitro-phenol]

Reference: patent publication US20080214583A1, “7H-Pyrrolo[2,3-D]Pyrimidine Derivatives, As Well As Their Therapeutically Acceptable Salts, Pharmaceutical Preparations Containing Them And Process For Production The Active Agent” (priority 2004, published 2008)
